Test results reported in the supplement of paper PMC10307832.

What was measured:
Experiment in all cases: relative viability (nuclei count vs DMSO), 5 days (fraction); higher = more cells survive
NCI-H2087 = test system: NCI-H2087
Summary of the method: (§1)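 Lung cancer cell lines were pin-tool dosed in 1536-well plates on the day after seeding, with either a lone drug or a fixed anchor-drug dose plus five library-drug doses (not always all listed) in √10 steps. Nuclei were counted on 4× images after 5 days. Relative viability is the ratio of treated-well to vehicle-well nuclei counts, with each value a median of duplicate plates.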

NCI-H1651 = test system: NCI-H1651
Summary of the method: as §1

ChaGo-K-1 = test system: ChaGo-K-1
Summary of the method: as §1

LCLC-97TM1 = test system: LCLC-97TM1
Summary of the method: as §1

BEN = test system: BEN
Summary of the method: as §1

LXF-289 = test system: LXF-289
Summary of the method: as §1

LU99A = test system: LU99A
Summary of the method: as §1

UMC-11 = test system: UMC-11
Summary of the method: as §1

H3255 = test system: H3255
Summary of the method: as §1

SK-MES-1 = test system: SK-MES-1
Summary of the method: as §1

NCI-H596 = test system: NCI-H596
Summary of the method: as §1

LC-2-ad = test system: LC-2-ad
Summary of the method: as §1

PC-3 [JPC-3] = test system: PC-3 [JPC-3]
Summary of the method: as §1

NCI-H838 = test system: NCI-H838
Summary of the method: as §1

NCI-H650 = test system: NCI-H650
Summary of the method: as §1

NCI-H322M = test system: NCI-H322M
Summary of the method: as §1

NCI-H1666 = test system: NCI-H1666
Summary of the method: as §1

NCI-H1944 = test system: NCI-H1944
Summary of the method: as §1

HCC-78 = test system: HCC-78
Summary of the method: as §1

HCC-15 = test system: HCC-15
Summary of the method: as §1

NCI-H358 = test system: NCI-H358
Summary of the method: as §1

LK-2 = test system: LK-2
Summary of the method: as §1

NCI-H2342 = test system: NCI-H2342
Summary of the method: as §1

NCI-H661 = test system: NCI-H661
Summary of the method: as §1

For `C[C@@H]1CN(CC(=O)Nc2ccc3c(c2)Cc2cccc(-c4cc(=O)cc(N5CCOCC5)o4)c2S3)C[C@H](C)O1` + COc1cc2c(Oc3ccc(NC(=O)C4(C(=O)Nc5ccc(F)cc5)CC4)cc3F)ccnc2cc1OCCCN1CCOCC1 [Foretinib] (partner 0.25 µM), the relative viability (NCI-H2087; first compound 0.04 µM) was 1.15, the relative viability (NCI-H2087; first compound 0.1265 µM) was 0.954 and the relative viability (NCI-H2087; first compound 0.4 µM) was 1.05. The relative viability (NCI-H2087; first compound 4 µM) was 0.801, the relative viability (NCI-H1651; first compound 0.04 µM) was 0.924 and the relative viability (NCI-H1651; first compound 0.1265 µM) was 1.14. For the same compound, the relative viability (NCI-H1651; first compound 0.4 µM) was 0.96, the relative viability (NCI-H1651; first compound 4 µM) was 0.679 and the relative viability (ChaGo-K-1; first compound 0.04 µM) was 0.793. It also gave a relative viability (ChaGo-K-1; first compound 0.1265 µM) of 0.929, a relative viability (ChaGo-K-1; first compound 0.4 µM) of 0.892 and a relative viability (ChaGo-K-1; first compound 4 µM) of 0.825. The relative viability (LCLC-97TM1; first compound 0.04 µM) was 0.902, the relative viability (LCLC-97TM1; first compound 0.1265 µM) was 0.862 and the relative viability (LCLC-97TM1; first compound 0.4 µM) was 0.959. For the same compound, the relative viability (LCLC-97TM1; first compound 4 µM) was 0.969, the relative viability (BEN; first compound 0.04 µM) was 0.615 and the relative viability (BEN; first compound 0.1265 µM) was 0.552. The relative viability (BEN; first compound 0.4 µM) was 0.593, the relative viability (BEN; first compound 4 µM) was 0.623 and the relative viability (LXF-289; first compound 0.04 µM) was 0.993. The relative viability (LXF-289; first compound 0.1265 µM) was 1.01, the relative viability (LXF-289; first compound 0.4 µM) was 0.985 and the relative viability (LXF-289; first compound 4 µM) was 0.936. For the same compound, the relative viability (LU99A; first compound 0.04 µM) was 0.79, the relative viability (LU99A; first compound 0.1265 µM) was 0.959 and the relative viability (LU99A; first compound 0.4 µM) was 1.02. The relative viability (LU99A; first compound 4 µM) was 0.854, the relative viability (UMC-11; first compound 0.04 µM) was 1.1 and the relative viability (UMC-11; first compound 0.1265 µM) was 0.995. The relative viability (UMC-11; first compound 0.4 µM) was 1.1, the relative viability (UMC-11; first compound 4 µM) was 0.746 and the relative viability (H3255; first compound 0.04 µM) was 1.02. The relative viability (H3255; first compound 0.1265 µM) was 0.837, the relative viability (H3255; first compound 0.4 µM) was 0.677 and the relative viability (H3255; first compound 4 µM) was 0.783. The relative viability (SK-MES-1; first compound 0.04 µM) was 1.15, the relative viability (SK-MES-1; first compound 0.1265 µM) was 0.822 and the relative viability (SK-MES-1; first compound 0.4 µM) was 0.76. For the same compound, the relative viability (SK-MES-1; first compound 4 µM) was 0.746, the relative viability (NCI-H596; first compound 0.04 µM) was 0.926 and the relative viability (NCI-H596; first compound 0.1265 µM) was 0.835. It also gave a relative viability (NCI-H596; first compound 0.4 µM) of 0.909, a relative viability (NCI-H596; first compound 4 µM) of 0.87 and a relative viability (LC-2-ad; first compound 0.04 µM) of 0.863. The relative viability (LC-2-ad; first compound 0.1265 µM) was 0.921, the relative viability (LC-2-ad; first compound 0.4 µM) was 0.913 and the relative viability (LC-2-ad; first compound 4 µM) was 0.874. The relative viability (PC-3 [JPC-3]; first compound 0.04 µM) was 1.02, the relative viability (PC-3 [JPC-3]; first compound 0.1265 µM) was 0.998 and the relative viability (PC-3 [JPC-3]; first compound 0.4 µM) was 0.93. For the same compound, the relative viability (PC-3 [JPC-3]; first compound 4 µM) was 0.884, the relative viability (NCI-H838; first compound 0.04 µM) was 0.871 and the relative viability (NCI-H838; first compound 0.1265 µM) was 0.952. It also gave a relative viability (NCI-H838; first compound 0.4 µM) of 0.969, a relative viability (NCI-H838; first compound 4 µM) of 0.723 and a relative viability (NCI-H650; first compound 0.04 µM) of 0.993. It also gave a relative viability (NCI-H650; first compound 0.1265 µM) of 0.977, a relative viability (NCI-H650; first compound 0.4 µM) of 1.03 and a relative viability (NCI-H650; first compound 4 µM) of 0.875. The relative viability (NCI-H322M; first compound 0.04 µM) was 0.508, the relative viability (NCI-H322M; first compound 0.1265 µM) was 0.965 and the relative viability (NCI-H322M; first compound 0.4 µM) was 0.979. The relative viability (NCI-H322M; first compound 4 µM) was 0.874, the relative viability (NCI-H1666; first compound 0.04 µM) was 0.952 and the relative viability (NCI-H1666; first compound 0.1265 µM) was 0.989. It also gave a relative viability (NCI-H1666; first compound 0.4 µM) of 1.05, a relative viability (NCI-H1666; first compound 4 µM) of 0.812 and a relative viability (NCI-H1944; first compound 0.04 µM) of 0.761. The relative viability (NCI-H1944; first compound 0.1265 µM) was 0.888, the relative viability (NCI-H1944; first compound 0.4 µM) was 0.926 and the relative viability (NCI-H1944; first compound 4 µM) was 0.912. It also gave a relative viability (HCC-78; first compound 0.04 µM) of 0.554, a relative viability (HCC-78; first compound 0.1265 µM) of 0.579 and a relative viability (HCC-78; first compound 0.4 µM) of 0.513. For the same compound, the relative viability (HCC-78; first compound 4 µM) was 0.468, the relative viability (HCC-15; first compound 0.04 µM) was 1.05 and the relative viability (HCC-15; first compound 0.1265 µM) was 1.06. The relative viability (HCC-15; first compound 0.4 µM) was 1.02, the relative viability (HCC-15; first compound 4 µM) was 0.73 and the relative viability (NCI-H358; first compound 0.04 µM) was 0.547. For the same compound, the relative viability (NCI-H358; first compound 0.1265 µM) was 0.677, the relative viability (NCI-H358; first compound 0.4 µM) was 0.682 and the relative viability (NCI-H358; first compound 4 µM) was 0.4. It also gave a relative viability (LK-2; first compound 0.1265 µM) of 1.27, a relative viability (LK-2; first compound 0.4 µM) of 1.16 and a relative viability (LK-2; first compound 4 µM) of 1.47. For the same compound, the relative viability (NCI-H2342; first compound 0.04 µM) was 0.959, the relative viability (NCI-H2342; first compound 0.1265 µM) was 0.95 and the relative viability (NCI-H2342; first compound 0.4 µM) was 0.973. It also gave a relative viability (NCI-H2342; first compound 4 µM) of 0.908, a relative viability (NCI-H661; first compound 0.04 µM) of 0.776 and a relative viability (NCI-H661; first compound 0.1265 µM) of 1.04. The relative viability (NCI-H661; first compound 0.4 µM) was 0.953 and the relative viability (NCI-H661; first compound 4 µM) was 0.927.
